Experimental data reported in patent US8759334B2, “Compounds useful for the treatment of metabolic and inflammatory diseases” (Galapagos NV, priority 2011, dated 2014).

Molecular target: T1, GPR43 (Homo sapiens, UniProt O15552)
T1 construct: expressed in transfected cells
T1 sequence (O15552 1-330): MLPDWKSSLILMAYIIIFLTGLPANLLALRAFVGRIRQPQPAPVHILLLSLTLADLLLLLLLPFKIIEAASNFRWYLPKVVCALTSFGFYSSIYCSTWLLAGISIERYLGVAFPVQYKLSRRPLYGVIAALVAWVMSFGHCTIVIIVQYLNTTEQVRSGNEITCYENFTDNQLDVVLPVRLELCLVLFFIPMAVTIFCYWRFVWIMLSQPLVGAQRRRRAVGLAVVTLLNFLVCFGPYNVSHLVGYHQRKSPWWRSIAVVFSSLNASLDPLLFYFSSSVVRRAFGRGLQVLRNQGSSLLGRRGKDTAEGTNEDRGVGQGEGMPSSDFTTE
Test: Calcium mobilization assay with probenecid
Format: cell-based
Details: GPR43 stably expressing cells; triggered with sodium acetate at EC80; 2.5 mM probenecid; read-out: GPR43 assay with probenicid IC50
Protocol: The following assay can be used for determination of GPR43 activation. The assay measures intracellular calcium release induced by activation of GPR43. On day 1, GPR43 stably expressing cells were detached with mild trypsinization (Trypsin, 0.25% with EDTA 4Na, 5× diluted in PBS) centrifuged at 1000 rpm for 5 min and resuspended at 6.000 cells/25 […] medium (DMEM supplemented with 10% FBS, 10 μg/mL puromycin and 1% Pen/Strep). The cells were distributed in poly-D-lysine coated 384 well plates (black with clear bottom, 25 μL/well) and incubated overnight at 37° C. 10% CO2.
On day 2, 25 μL of a fluorescent Ca^2+ indicator (Calcium 4 assay; Molecular Devices) supplemented with 2.5 mM probenecid was added on top of the cells and incubated for 2 h at 37° C. Subsequently, compounds at increasing concentration (10 μL/well) were added to the plate and incubated for 15 min at 37° C.
To measure agonist activity of the compounds, compound was added to the well and the Ca^2+-flux was measured simultaneously to the […] of compound.

| IC50 | Compound |
| --- | --- |
| > 1000 nM | CN(Cc1ccc(Cl)cc1)C(=O)C1(C)CCN1C(=O)Cc1cccc2sccc12 (stereo not shown) [Compound 105, 1-(2-Benzo[b]thiophen-4-yl-acetyl)-2-methyl-azetidine-2-carboxylic acid (4-chloro-benzyl)-methyl-amide] |
| 0.01 to 100 nM | CC1(C(=O)N(CCCC(=O)N2CCOCC2)Cc2ccc(Cl)cc2)CCN1C(=O)Cc1csc2ccccc12 (stereo not shown) [Compound 129, 1-(2-Benzo[b]thiophen-3-yl-acetyl)-2-methyl-azetidine-2-carboxylic acid (4-chloro-benzyl)-(4-morpholin-4-yl-4-oxo-butyl)-amide] |
| 0.01 to 100 nM | CNS(=O)(=O)CCCN(Cc1ccc(Cl)cc1)C(=O)C1(C)CCN1C(=O)Cc1csc2ccccc12 (stereo not shown) [Compound 189, 1-(2-Benzo[b]thiophen-3-yl-acetyl)-2-methyl-azetidine-2-carboxylic acid (4-chloro-benzyl)-(3-methylsulfamoyl-propyl)-amide] |
| > 1000 nM | CCOC(=O)CCCN(Cc1ccc(C(F)(F)F)cc1)C(=O)C1(C)CCN1C(=O)Cc1coc2ccccc12 (stereo not shown) [Compound 167, 4-[[1-(2-Benzofuran-3-yl-acetyl)-2-methyl-azetidine-2-carbonyl]-(4-trifluoromethyl-benzyl)-amino]-butyric acid ethyl ester] |
| > 1000 nM | CCOC(=O)CCCN(Cc1ccc(C(F)(F)F)cc1)C(=O)C1(C)CCN1C(=O)Cc1csc2ccccc12 (stereo not shown) [Compound 142, 4-[[1-(2-Benzo[b]thiophen-3-yl-acetyl)-2-methyl-azetidine-2-carbonyl]-(4-trifluoromethyl-benzyl)-amino]-butyric acid ethyl ester] |
| > 1000 nM | CC1(C(=O)N(CCCC(=O)O)Cc2ccc(Cl)cc2)CCN1C(=O)Oc1ccccc1F (stereo not shown) [Compound 210, 4-(N-(4-chlorobenzyl)-1-((2-fluorophenoxy)carbonyl)-2-methylazetidine-2-carboxamido)butanoic acid] |
| > 1000 nM | CCOC(=O)CCCN(Cc1cccc(Cl)c1)C(=O)C1(C)CCN1C(=O)c1csc2ccccc12 (stereo not shown) [Compound 143, ethyl 4-(1-(benzo[b]thiophene-3-carbonyl)-N-(3-chlorobenzyl)-2-methylazetidine-2-carboxamido)butanoate] |
| 501 to 1000 nM | CC1(C(=O)N(CCCC(=O)O)c2ccc(Cl)cn2)CCN1C(=O)c1csc2ccccc12 (stereo not shown) [Compound 250, 4-(1-(benzo[b]thiophene-3-carbonyl)-N-(5-chloropyridin-2-yl)-2-methylazetidine-2-carboxamido)butanoic acid] |
| 101 to 500 nM | CC1(C(=O)N(CCCC(=O)O)Cc2ccc3scnc3c2)CCN1C(=O)c1csc2ccccc12 (stereo not shown) [Compound 184, 4-{[1-(Benzo[b]thiophene-3-carbonyl)-2-methyl-azetidine-2-carbonyl]-benzothiazol-5-ylmethyl-amino}-butyric acid] |
| 101 to 500 nM | CC1(C(=O)N(CCCC(N)=O)Cc2ccc(Cl)cc2)CCN1C(=O)c1csc2ccccc12 (stereo not shown) [Compound 158, 1-(Benzo[b]thiophene-3-carbonyl)-2-methyl-azetidine-2-carboxylic acid (3-carbamoyl-propyl)-(4-chloro-benzyl)-amide] |
| 101 to 500 nM | CNS(=O)(=O)CCCN(Cc1ccc(Cl)cc1)C(=O)C1(C)CCN1C(=O)c1csc2ccccc12 (stereo not shown) [Compound 186, 1-(Benzo[b]thiophene-3-carbonyl)-2-methyl-azetidine-2-carboxlic acid (4-chloro-benzyl)-(3-methylsulfamoyl-propyl)-amide] |
| 0.01 to 100 nM | CC1(C(=O)N(CCCC(=O)O)Cc2ccc3scnc3c2)CCN1C(=O)Cc1csc2ccccc12 (stereo not shown) [Compound 183, 4-{[1-(2-Benzo[b]thiophen-3-yl-acetyl)-2-methyl-azetidine-2-carbonyl]-benzothiazol-5-ylmethyl-amino}-butyric acid] |
| > 1000 nM | CC1(C(=O)N(CCCC(=O)O)Cc2ccc(Cl)cc2)CCN1C(=O)Oc1ccccc1Br (stereo not shown) [Compound 235, 4-(1-((2-bromophenoxy)carbonyl)-N-(4-chlorobenzyl)-2-methylazetidine-2-carboxamido)butanoic acid] |
| 101 to 500 nM | COC(=O)CCN(Cc1ccc(Cl)cc1)C(=O)C1(C)CCN1C(=O)Cc1coc2ccccc12 (stereo not shown) [Compound 150, 3-[[1-(2-Benzofuran-3-yl-acetyl)-2-methyl-azetidine-2-carbonyl]-(4-chloro-benzyl)-amino]-propionic acid methyl ester] |
| > 1000 nM | COc1ccc(CNS(=O)(=O)CCCN(Cc2ccc(Cl)cc2)C(=O)C2(C)CCN2C(=O)Cc2csc3ccccc23)c(OC)c1 (stereo not shown) [Compound 178, 1-(2-Benzo[b]thiophen-3-yl-acetyl)-2-methyl-azetidine-2-carboxylic acid (4-chloro-benzyl)-[3-(2,4-dimethoxy-benzylsulfamoyl)-propyl]-amide] |
| 101 to 500 nM | CC1(C(=O)N(CCCC(=O)O)c2cccc(Cl)c2)CCN1C(=O)c1csc2ccccc12 (stereo not shown) [Compound 248, 4-(1-(benzo[b]thiophene-3-carbonyl)-N-(3-chlorophenyl)-2-methylazetidine-2-carboxamido)butanoic acid] |
| > 1000 nM | CN(Cc1ccc(Cl)cc1)C(=O)C1(C)CCN1C(=O)Cc1cc2ccccc2s1 (stereo not shown) [Compound 108, 1-(2-Benzo[b]thiophen-2-yl-acetyl)-2-methyl-azetidine-2-carboxylic acid (4-chloro-benzyl)-methyl-amide] |

The next lines start with the molecule.

| Compound | IC50 |
| --- | --- |
| CS(=O)(=O)NC(=O)CCCN(Cc1cccc(Cl)c1)C(=O)C1(Cc2ccccc2F)CCN1C(=O)c1csc2ccccc12 (stereo not shown) [Compound 243, 1-(benzo[b]thiophene-3-carbonyl)-N-(3-chlorobenzyl)-2-(2-fluorobenzyl)-N-(4-(methylsulfonamido)-4-oxobutyl)azetidine-2-carboxamide] | 501 to 1000 nM |
| CN(Cc1ccc(Cl)cc1)C(=O)C1(C)CCN1C(=O)c1ccc2ccccc2c1 (stereo not shown) [Compound 126, 1-(2-naphthoyl)-N-(4-chlorobenzyl)-N,2-dimethylazetidine-2-carboxamide] | > 1000 nM |
| Cc1cc(C)cc(CC(=O)N2CCC2(C)C(=O)N(Cc2ccc(Cl)cc2)Cc2nnn[nH]2)c1 (stereo not shown) [Compound 76, 1-[2-(3,5-Dimethyl-phenyl)-acetyl]-2-methyl-azetidine-2-carboxylic acid (4-chloro-benzyl)-(1H-tetrazol-5-ylmethyl)-amide] | > 1000 nM |
| CS(=O)(=O)NC(=O)CCCN(Cc1cccc(Cl)c1)C(=O)C1(Cc2ccccc2)CCN1C(=O)c1csc2ccccc12 (stereo not shown) [Compound 230, 1-(benzo[b]thiophene-3-carbonyl)-2-benzyl-N-(3-chlorobenzyl)-N-(4-(methylsulfonamido)-4-oxobutyl)azetidine-2-carboxamide] | 101 to 500 nM |
| CC1(C(=O)N(CCCC(=O)NS(C)(=O)=O)c2ccc(Cl)cc2)CCN1C(=O)c1csc2ccccc12 (stereo not shown) [Compound 234, 1-(benzo[b]thiophene-3-carbonyl)-N-(4-chlorophenyl)-2-methyl-N-(4-(methylsulfonamido)-4-oxobutyl)azetidine-2-carboxamide] | 0.01 to 100 nM |
| Cc1cc(C)cc(CC(=O)N2CCC2(C)C(=O)N(CCCC(=O)O)Cc2ccc3scnc3c2)c1 (stereo not shown) [Compound 185, 4-(Benzothiazol-5-ylmethyl-{1-[2-(3,5-dimethyl-phenyl)-acetyl]-2-methyl-azetidine-2-carbonyl}-amino)-butyric acid] | 501 to 1000 nM |
| COc1ccc(CNS(=O)(=O)CCCN(Cc2ccc(Cl)cc2)C(=O)C2(C)CCN2C(=O)Cc2cc(C)cc(C)c2)c(OC)c1 (stereo not shown) [Compound 168, 1-[2-(3,5-Dimethyl-phenyl)-acetyl]-2-methyl-azetidine-2-carboxylic acid (4-chloro-benzyl)-[3-(2,4-dimethoxy-benzylsulfamoyl)-propyl]-amide] | > 1000 nM |
| C[C@@H](c1ccc(Cl)cc1)N(CCCS(N)(=O)=O)C(=O)C1(C)CCN1C(=O)c1csc2ccccc12 (stereo partly drawn) [Compound 209, 1-(benzo[b]thiophene-3-carbonyl)-N-((S)-1-(4-chlorophenyl)ethyl)-2-methyl-N-(3-sulfamoylpropyl)azetidine-2-carboxamide] | 101 to 500 nM |
| CCOc1cc(CCN(Cc2ccc(Cl)cc2)C(=O)C2(C)CCN2C(=O)Cc2cc(C)cc(C)c2)nn1C (stereo not shown) [Compound 118, 1-[2-(3,5-Dimethyl-phenyl)-acetyl]-2-methyl-azetidine-2-carboxylic acid (4-chloro-benzyl)-[2-(5-ethoxy-1-methyl-1H-pyrazol-3-yl)-ethyl]-amide] | > 1000 nM |
| CC1(C(=O)N(CCCC(=O)N2CCOCC2)Cc2ccc(Cl)cc2)CCN1C(=O)c1ccc2sccc2c1 (stereo not shown) [Compound 138, 1-(benzo[b]thiophene-5-carbonyl)-N-(4-chlorobenzyl)-2-methyl-N-(4-morpholino-4-oxobutyl)azetidine-2-carboxamide] | > 1000 nM |
| O=C(O)CCCN(Cc1cccc(Cl)c1)C(=O)C1(Cc2ccc(Cl)cc2)CCN1C(=O)c1csc2ccccc12 (stereo not shown) [Compound 225, 4-(1-(benzo[b]thiophene-3-carbonyl)-N-(3-chlorobenzyl)-2-(4-chlorobenzyl)azetidine-2-carboxamido)butanoic acid] | 501 to 1000 nM |
